Laboratory results from the NIST ThermoML archive (doi:10.1016/j.fluid.2011.06.011).
Numbers after ± are expanded uncertainties.

Test: refractive index (Na D-line) (dimensionless); xn = mol fraction of the nth substance listed
Settings: 101 kPa, Liquid, Standard Abbe refractometry

Compound: C=CC(C)(O)CCC=C(C)C (stereo not drawn) [3,7-dimethyl-1,6-octadien-3-ol] + CCO
- refractive index (283.15 K, x1 = 0.0506): 1.38013 ± 0.00032
- refractive index (283.15 K, x1 = 0.1008): 1.39241 ± 0.00032
- refractive index (283.15 K, x1 = 0.1969): 1.41091 ± 0.00032
- refractive index (283.15 K, x1 = 0.2884): 1.42392 ± 0.00033
- refractive index (283.15 K, x1 = 0.388): 1.43469 ± 0.00035
- refractive index (283.15 K, x1 = 0.4803): 1.44248 ± 0.00037
- refractive index (283.15 K, x1 = 0.56): 1.44799 ± 0.00038
- refractive index (283.15 K, x1 = 0.6838): 1.45474 ± 0.00041
- refractive index (283.15 K, x1 = 0.7832): 1.45921 ± 0.00043
- refractive index (283.15 K, x1 = 0.8941): 1.46319 ± 0.00046
- refractive index (283.15 K, x1 = 0.9286): 1.46443 ± 0.00047
- refractive index (283.15 K, x1 = 1): 1.4666 ± 0.00049
- refractive index (298.15 K, x1 = 0.0506): 1.37416 ± 0.00032
- refractive index (298.15 K, x1 = 0.1008): 1.38626 ± 0.00032
- refractive index (298.15 K, x1 = 0.1969): 1.40451 ± 0.00033
- refractive index (298.15 K, x1 = 0.2895): 1.4175 ± 0.00034
- refractive index (298.15 K, x1 = 0.388): 1.42801 ± 0.00035
- refractive index (298.15 K, x1 = 0.4834): 1.4359 ± 0.00037
- refractive index (298.15 K, x1 = 0.593): 1.44306 ± 0.00039
- refractive index (298.15 K, x1 = 0.6838): 1.44779 ± 0.00041
- refractive index (298.15 K, x1 = 0.8438): 1.45451 ± 0.00045
- refractive index (298.15 K, x1 = 0.8941): 1.45612 ± 0.00046
- refractive index (298.15 K, x1 = 0.9337): 1.45748 ± 0.00047
- refractive index (298.15 K, x1 = 1): 1.45946 ± 0.00049
- refractive index (313.15 K, x1 = 0.0493): 1.3678 ± 0.00032
- refractive index (313.15 K, x1 = 0.1008): 1.37996 ± 0.00032
- refractive index (313.15 K, x1 = 0.1969): 1.39788 ± 0.00033
- refractive index (313.15 K, x1 = 0.2895): 1.41061 ± 0.00034
- refractive index (313.15 K, x1 = 0.3957): 1.42171 ± 0.00035
- refractive index (313.15 K, x1 = 0.4834): 1.42883 ± 0.00037
- refractive index (313.15 K, x1 = 0.593): 1.43594 ± 0.00039
- refractive index (313.15 K, x1 = 0.6838): 1.44061 ± 0.00041
- refractive index (313.15 K, x1 = 0.8438): 1.44732 ± 0.00045
- refractive index (313.15 K, x1 = 0.8941): 1.4489 ± 0.00046
- refractive index (313.15 K, x1 = 0.9286): 1.45004 ± 0.00047
- refractive index (313.15 K, x1 = 1): 1.45215 ± 0.00049
- refractive index (328.15 K, x1 = 0.0471): 1.3611 ± 0.00032
- refractive index (328.15 K, x1 = 0.1008): 1.37358 ± 0.00032
- refractive index (328.15 K, x1 = 0.1969): 1.39102 ± 0.00033
- refractive index (328.15 K, x1 = 0.2895): 1.4036 ± 0.00034
- refractive index (328.15 K, x1 = 0.3957): 1.41452 ± 0.00035
- refractive index (328.15 K, x1 = 0.4834): 1.42158 ± 0.00037
- refractive index (328.15 K, x1 = 0.593): 1.42859 ± 0.00039
- refractive index (328.15 K, x1 = 0.6838): 1.43327 ± 0.00041
- refractive index (328.15 K, x1 = 0.8438): 1.43989 ± 0.00045
- refractive index (328.15 K, x1 = 0.8941): 1.4415 ± 0.00046
- refractive index (328.15 K, x1 = 0.9286): 1.44266 ± 0.00047
- refractive index (328.15 K, x1 = 1): 1.44473 ± 0.00049
